Target: Cloudman S91
Assay: Tyrosinase activity in vitro (release of tritiated water from 3,5-3H-tyrosine)
Assay type: cell-based
Conditions: molar concentration giving a response equal to half the maximum; tyrosinase activity relative to melanotropin-free control; Cloudman S91 monolayers, 24 h + further 24 h with 3,5-³H-tyrosine; read-out: EC₅₀
Method: Cloudman S91 were grown in monolayers to a density of approximately 25,000 cells cm⁻² in 25cm² culture flasks using 4 ml Ham's F10 medium supplemented with 10% heat inactivated foetal calf serum. The medium was replaced and 10⁻⁵ and 10⁻⁹ molar concentrations of the test or control compound added. After 24 h, medium and melantropins were renewed and 1»Ci, 3,5-³H-tyrosine included. The final specific activity of 3,5-³H-tyrosine incubation medium was 0.1 Ci/mmol.
After a further 24h, 0.2ml of the medium from each incubation were transferred to centrifuge tubes containing 1ml activated charcoal suspension (100 mg/ml in 0.1M citric acid). The tubes were vortexed and centrifuged at 700 x g for 5 min. Aliquots (0.5 ml) of each supernatant were transferred to scintillation vials and counted on a Packard Tri-Carb 300D scintillation counter. Aliquots (0.1ml) of the unextracted medium were also counted. Finally, the remaining medium was removed and the cell monolayer suspended in 1ml isotonic trypsin/EDTA. The dispersed cells were counted in a Coulter counter.
The amount of water generated from the tyrosine per 10⁵ cells was calculated and the results divided by the value obtained from the melanotropin-free control. The activities of the melanotropins were expressed as the molar concentrations required to give responses equal to half the maximum (EC₅₀) and are recorded in Table 1.

Compound	EC50 [nM]
CCCC[C@H](NC(C)=O)C(=O)N[C@@H](CC(=O)O)C(=O)N[C@@H](Cc1c[nH]cn1)C(=O)N[C@H](Cc1ccccc1)C(=O)N[C@@H](CCCNC(=N)N)C(=O)N[C@@H](Cc1c[nH]c2ccccc12)C(=O)N[C@@H](CCCCN)C(N)=O [MSH(4-10), Ac-[Nle⁴, Asp⁵, D-Phe⁷, Lys¹⁰] α-MSH₄₋₁₀-NH₂]	0.74
alpha-melanocyte stimulating hormone [MSH]	2.81

Source: patent EP0478631B1, “TARGETTING AGENTS” (CANCER RESEARCH CAMPAIGN TECHNOLOGY LTD., priority 1989, dated 1991)
